Measured values as given in publication PMC6826492, “Experimental and Computational Study of the Antioxidative Potential of Novel Nitro and Amino Substituted Benzimidazole/Benzothiazole-2-Carboxamides with Antiproliferative Activity” (Antioxidants, 2019).
Like-named read-outs stand apart in the source and are kept apart here.

Experiments:
[1] = tested on: H 460 (lung carcinoma); experiment: Antiproliferative activity in vitro (MTT assay); assay type: cell-based, human; conditions: 72 h incubation, concentration that causes 50% growth inhibition
Procedure: (§1) The experiments were performed on four human cell lines, including HCT 116 (colon carcinoma), H 460 (lung carcinoma), MCF-7 (breast carcinoma), and HEK 293 (human embryonic kidney cells), in line with previously published experimental procedures. Briefly, the cells were grown in DMEM medium with the addition of 10% fetal bovine serum (FBS), 2 mM L-glutamine, 100 U/mL penicillin, and 100 µg/mL streptomycin, and cultured as monolayers at 37 °C in a humidified atmosphere with 5% CO2. Cells were seeded at 2 × 10^3 cells/well in a standard 96-well microtiter plates and left to attach for 24 h. The next day, a test compound was added in five serial 10-fold dilutions. The rate of cell growth was evaluated after 72 h of incubation with MTT assays. The obtained results are expressed as IC50 values, calculated from the concentration-response curve using linear regression analysis by fitting the test concentrations that give PG values above and below the reference value (i.e., 50%). Each test was performed in quadruplicate in at least two individual experiments.

[2] = tested on: HCT 116 (colon carcinoma); experiment: Antiproliferative activity in vitro (MTT assay); assay type: cell-based, human; conditions: 72 h incubation, concentration that causes 50% growth inhibition, read-out: IC50 HCT116
Procedure: as §1

[3] = tested on: MCF-7 (breast carcinoma); experiment: Antiproliferative activity in vitro (MTT assay); assay type: cell-based, human; conditions: 72 h incubation, concentration that causes 50% growth inhibition
Procedure: as §1

[4] = tested on: HEK 293 (human embryonic kidney cells); experiment: Cytotoxic activity on non-cancerous cells (MTT assay); assay type: cell-based; conditions: for IC50: Homo sapiens, HEK293, non-tumor cell line, 72 h incubation, MTT, concentration that causes 50% growth inhibition
Procedure: as §1

[5] = DPPH free radical scavenging; assay type: biochemical; set-up: key to DPPH IC50: –: Very low activity
Procedure: The reducing activity of investigated systems was achieved by the DPPH method according to previously described procedures with modifications to assure the use in a 96-well microplate. Briefly, equal volumes of various concentrations of tested molecules (dissolved in DMSO) were added to the solution of DPPH (final concentration 50 µM in absolute ethanol). Ethanol and DMSO were used as control solutions in line with earlier reports.

[6] = Ferric reducing/antioxidant power (FRAP assay); assay type: biochemical; conditions: means ± standard deviation; absorbance at 593 nm
Procedure: The FRAP method was carried out according to previously described procedures with some modifications to be compatible with an assay on a 96-well microplate. All tests were done in triplicate, while the obtained results were averaged and reported as Fe^2+ equivalents (Fe^2+ µmol).
By using the FRAP assay, we investigated the reducing power of investigated systems, which was monitored by the corresponding changes in the absorbance at 593 nm. This method is based on the ability of systems to reduce the ferric tripyridyl triazine complex (TPTZ) to the ferrous state (Fe^2+), which can be seen by an intense blue color. […] Good reducing ability was shown by the trimethoxy substituted benzimidazole-2-carboxamide 14 bearing the amino group (1102.5 ± 14.1 mmolFe^2+/mmolC).

[7] = tested on: three human cancer cells; experiment: Antiproliferative activity in vitro, range over the tumor cell lines; assay type: cell-based; conditions: HCT116, MCF-7, H 460
Procedure: as §1

[8] = tested on: HCT 116 cells; experiment: Antioxidative activity assay in cells (TBHP-induced ROS, DCFH-DA); assay type: cell-based, human; conditions: 100 µM TBHP + 10 µM compound, 1 h, DCFH-DA fluorescence
Procedure: For the antioxidative activity assay, 2.5 × 10^4 cells were seeded into 96-well microtiter plates and left to attach for 24 h. The next day, cells were washed with PBS and incubated in FBS-free DMEM medium with 25 µM DCFH-DA fluorescence dye. After 45 min of incubation, medium was discarded, and cells were washed with PBS. After the washing step, cells were incubated with 100 µM tert-Butyl hydroperoxide (TBHP) alone or in combination with antioxidative agents (50 mM N-Acetyl-L-cysteine—NAC, or 10 µM tested compounds) in PBS, for 1 h at 37 °C. DCFH-DA fluorescence was recorded on a microplate fluorimeter reader (Tecan) with excitation beam of 485 nm, while the emitted fluorescence was collected at 535 nm. All tests were presented as medians of three independent measurements, done in triplicates. One-way ANOVA with Tukey’s post-hoc test was used for statistical analysis, * p < 0.05, ** p < 0.01, *** p < 0.001.
In order to test the antioxidant activity of selected systems in tumor cells (Figure 1), we treated HCT 116 cells with tert-Butyl hydroperoxide (TBHP), a substance commonly used for inducing oxidative stress in cells and tissues, alone or in a combination with a known antioxidative agent N-Acetyl-L-cysteine (NAC) or tested compounds [35]. We measured the formation of oxidative stress by-products using 2′,7′-dichlorodihydrofluorescein diacetate (DCFH-DA). We selected system 8 showing pronounced antiproliferative/cytotoxic activity, but no antioxidant capacity in DPPH/FRAP assays, 29 showing exceptionally pronounced antioxidative activity in DPPH/FRAP tests, 14 showing negligible antiproliferative but strong antioxidant capacity in both DPPH/FRAP assays, and 26 showing similarly strong antiproliferative and radical trapping activity in DPPH assay, but rather modest reducing power in FRAP assay. None of the compounds influenced the basal level of ROS in the cells. […] On the other hand, no effect was obtained upon treatment with either 8 or 14 (Figure 1). We additionally tested the impact of the selected compounds on cellular and mitochondrial ROS production in HCT 116 cells using fluorescent dyes, DCFH-DA for cellular and MitoSOX for mitochondrial ROS detection (Supplementary Materials, Figures S53 and S54).
Figure 1 Antioxidative activity of selected systems. HCT 116 cells were treated with the combination of tert-Butyl hydroperoxide (TBHP, 100 uM) and N-Acetyl-L-cysteine (NAC, 50 mM) or tested compounds 8, 14, 26, and 29 (10 µM) for 1 h. The level of reactive oxygen species (ROS) was measured with fluorescent dye 2′,7′-dichlorodihydrofluorescein diacetate (DCFH-DA) using fluorimeter. Treatment with 100 uM TBHP alone was used as a control for ROS induction. Data presented here are the results of three independent measurements, done in triplicates. […]

[9] = tested on: HCT116 cell line; experiment: Cellular ROS measurement assay (DCFH-DA, flow cytometry); assay type: cell-based, human; conditions: HCT116, 10 µM compounds (2 mM H2O2 positive control), 1 h, DCF-DA; *** p < 0.001, ns not significant
Procedure: Figure S53. Impact of compounds on cellular ROS production was measured with fluorescent dye DCF-DA in HCT116 cell line, after the treatment with 10 µM compounds for 1h. H 2O2 was used as a positive control. Data presented here are the results of 3 independent measurements, done in duplicates. One-way ANOVA with Tukey’s post-hoc test was used for statistical analysis, ***- p < 0.001. […]
Human colon carcinoma cell line HCT116 was grown in DMEM medium with the addition of 10% fetal bovine serum (FBS), 2 mM L-glutamine, 100 U/ml penicillin and 100 µg/ml streptomycin, and cultured as monolayers at 37°C in a humidified atmosphere with 5% CO2.
Cellular ROS measurement assay
For the cellular ROS measurement assay, 2.5 × 10^4 cells were seeded into 96-well microtiter plates 24h prior to experiment. Next day, cells were trypsinized and incubated in FBS-free DMEM medium with 20 µM DCFH-DA fluorescence dye for 45 minutes. After the incubation, compounds were added without washing and cells were treated with 2 mM H 2O2 as a positive control and 10 µM compounds 8, 14 and 26 for 1 hour. Cells were washed in PBS and DCFH-DA signal was measured by flow cytometry, in FL1 channel. […]

[10] = tested on: HCT116 cell line; experiment: Mitochondrial ROS measurement assay (MitoSOX, flow cytometry); assay type: cell-based, human; conditions: HCT116, 10 µM compounds (3 µM Rotenone positive control), 1 h, *** p < 0.001, ns not significant
[11] = after 30 min of incubation with 100 μM DPPH

Row | Structure (SMILES) | IC50 [1] [µM] | IC50 [2] [µM] | IC50 [3] [µM] | IC50 [4] [µM] | IC50 [5, 11] [µM] | FRAP [6] [mmolFe^2+/mmolC] | IC50 [7] [µM] | IC50 ([1]; Homo sapiens, NCI-H460, 72 h) [µM] | IC50 ([2]; Homo sapiens, HCT-116, 72 h) [µM] | IC50 ([3]; Homo sapiens, MCF7, 72 h) [µM] | lower activity towards HEK293 cells than towards HCT116 cells (times) ([4]; HEK293 vs HCT116) | DPPH IC50 [5, 11] | ROS levels when oxidative stress was induced [8] | cellular ROS production (significance vs control) [9] | mitochondrial ROS production (significance vs control) [10] | antioxidant potency relative to 17 ([5]; DPPH, 14 vs 17)
1 | COc1ccccc1C(=O)Nc1nc2ccc(N)cc2s1.Cl [Compound 21, N-(6-aminobenzothiazol-2-yl)-2-methoxybenzamide hydrochloride] | 4 ± 0.1 | 10 ± 8 | 3 ± 0.7 | 25 ± 1.5 | 12 ± 1.1 | 214.3 ± 3.4 | 3 to 10 |  |  |  |  |  |  |  |  | 
2 | COc1cc(C(=O)Nc2nc3ccc([N+](=O)[O-])cc3[nH]2)cc(OC)c1OC [Compound 8, 3,4,5-trimethoxy-N-[5(6)-nitrobenzimidazol-2-yl]benzamide] |  |  |  | 2 ± 0.5 |  | 89.7 ± 6.2 | 0.6 to 2 | 2 ± 0.2 | 0.6 ± 0.03 | 1 ± 0.2 | ≈ 3 times | – | no effect | ns | ns | 
3 | COc1cc(C(=O)Nc2nc3ccc(N)cc3[nH]2)cc(OC)c1OC [Compound 14, N-[5(6)-aminobenzimidazol-2-yl]-3,4,5-trimethoxybenzamide] |  |  |  | 43 ± 2 | 10.7 ± 0.23 | 1102.5 ± 14.1 |  | > 100 | 76 ± 24 | 43 ± 15 |  |  | no effect | ns | ns | around four times
4 | COc1c(O)cc(C(=O)Nc2nc3ccc([N+](=O)[O-])cc3[nH]2)cc1O [Compound 26, 3,5-dihydroxy-4-methoxy-N-[5(6)-nitrobenzimidazol-2-yl]benzamide] |  |  |  | 3 ± 0.7 | 8.1 ± 1.9 | 244.9 ± 4.8 |  | 3 ± 0.5 | 4 ± 0.1 | 3 ± 1 |  |  | significantly reduced the ROS levels | ns | ns | 
